Measurements published in patent publication US20230250066A1, “HERBICIDAL CINNOLINE DERIVATIVES” (SYNGENTA CROP PROTECTION AG, priority 2020, published 2023).

Key:
Type in all cases: in vivo
[1] = system: Abutilon theophrasti (ABUTH); assay: Post-emergence herbicidal test; conditions: 1000 g/ha unless otherwise stated, evaluated after 13 days
Outline: (§1)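 Spray treatment, 1000 g/ha unless noted; vehicle acetone/water (50:50), 0.5% Tween 20. Glasshouse 24/16° C., 14 h light, 65% humidity. Percent injury rated at 13 d, banded 0–5.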

Setaria faberi (SETFA) [2] = assay: Post-emergence herbicidal test; conditions: 1000 g/ha unless otherwise stated, evaluated after 13 days
Outline: as §1

[3] = system: Ipomoea hederacea (IPOHE); assay: Post-emergence herbicidal test; conditions: 1000 g/ha unless otherwise stated, evaluated after 13 days
Outline: as §1

[4] = system: Amaranthus retoflexus (AMARE); assay: Post-emergence herbicidal test; conditions: 1000 g/ha unless otherwise stated, evaluated after 13 days
Outline: as §1

Zea mays (ZEAMX) [5] = assay: Post-emergence herbicidal test; conditions: 1000 g/ha unless otherwise stated, evaluated after 13 days
Outline: as §1

[6] = system: Echinochloa crus-galli (ECHCG); assay: Post-emergence herbicidal test; conditions: 1000 g/ha unless otherwise stated, evaluated after 13 days
Outline: as §1

[7] = system: Ipomoea hederacea (IPOHE); assay: Pre-emergence herbicidal test; conditions: 1000 g/ha, evaluated after 13 days
Zea mays (ZEAMX) [8] = assay: Pre-emergence herbicidal test; conditions: 1000 g/ha, evaluated after 13 days
[9] = system: Echinochloa crus-galli (ECHCG); assay: Pre-emergence herbicidal test; conditions: 1000 g/ha, evaluated after 13 days
Setaria faberi (SETFA) [10] = assay: Pre-emergence herbicidal test; conditions: 1000 g/ha, evaluated after 13 days
[11] = system: Abutilon theophrasti (ABUTH); assay: Pre-emergence herbicidal test; conditions: 1000 g/ha, evaluated after 13 days
[12] = system: Amaranthus retoflexus (AMARE); assay: Pre-emergence herbicidal test; conditions: 1000 g/ha, evaluated after 13 days

## CS(=O)(=O)c1cccc2c1c(=O)c(C(=O)OCC1CC1)nn2-c1ccc(OC(F)(F)F)cc1 [Compound P63, cyclopropylmethyl 5-methylsulfonyl-4-oxo-1-[4-(trifluoromethoxy)phenyl]cinnoline-3-carboxylate]
[1]
  percentage damage caused to the plant, ABUTH (five-point scale): 0 (0=0%)
Setaria faberi (SETFA) [2]
  percentage damage caused to the plant, SETFA (five-point scale): 4 (4=61-80%)
[3]
  percentage damage caused to the plant, IPOHE (five-point scale): 0 (0=0%)
[4]
  percentage damage caused to the plant, AMARE (five-point scale): 0 (0=0%)
Zea mays (ZEAMX) [5]
  percentage damage caused to the plant, ZEAMX (five-point scale): 0 (0=0%)
[6]
  percentage damage caused to the plant, ECHCG (five-point scale): 3 (3=41-60%)
[7]
  percentage damage caused to the plant, five-point scale, IPOHE: 0 (0=0%)
Zea mays (ZEAMX) [8]
  percentage damage caused to the plant, five-point scale, ZEAMX: 0 (0=0%)
[9]
  percentage damage caused to the plant, five-point scale, ECHCG: 3 (3=41-60%)
Setaria faberi (SETFA) [10]
  percentage damage caused to the plant, five-point scale, SETFA: 5 (5=81-100%)
[11]
  percentage damage caused to the plant, five-point scale, ABUTH: 0 (0=0%)
[12]
  percentage damage caused to the plant, five-point scale, AMARE: 0 (0=0%)

## C=CC(C)OC(=O)c1nn(-c2ccc(OC(F)(F)F)cc2)c2cccc(S(C)(=O)=O)c2c1=O (stereo not drawn) [Compound P64, 1-methylallyl 5-methylsulfonyl-4-oxo-1-[4-(trifluoromethoxy)phenyl]cinnoline-3-carboxylate]
[1]
  percentage damage caused to the plant, ABUTH (five-point scale): 1 (1=10-20%)
Setaria faberi (SETFA) [2]
  percentage damage caused to the plant, SETFA (five-point scale): 4 (4=61-80%)
[3]
  percentage damage caused to the plant, IPOHE (five-point scale): 0 (0=0%)
[4]
  percentage damage caused to the plant, AMARE (five-point scale): 0 (0=0%)
Zea mays (ZEAMX) [5]
  percentage damage caused to the plant, ZEAMX (five-point scale): 1 (1=10-20%)
[6]
  percentage damage caused to the plant, ECHCG (five-point scale): 3 (3=41-60%)
[7]
  percentage damage caused to the plant, five-point scale, IPOHE: 0 (0=0%)
Zea mays (ZEAMX) [8]
  percentage damage caused to the plant, five-point scale, ZEAMX: 0 (0=0%)
[9]
  percentage damage caused to the plant, five-point scale, ECHCG: 4 (4=61-80%)
Setaria faberi (SETFA) [10]
  percentage damage caused to the plant, five-point scale, SETFA: 5 (5=81-100%)
[11]
  percentage damage caused to the plant, five-point scale, ABUTH: 0 (0=0%)
[12]
  percentage damage caused to the plant, five-point scale, AMARE: 0 (0=0%)

## CC(C)OC(=O)c1nn(-c2ccc(OC(F)(F)F)cc2)c2cccc(S(C)(=O)=O)c2c1=O [Compound P65, isopropyl 5-methylsulfonyl-4-oxo-1-[4-(trifluoromethoxy)phenyl]cinnoline-3-carboxylate]
[1]
  percentage damage caused to the plant, ABUTH (five-point scale): 1 (1=10-20%)
Setaria faberi (SETFA) [2]
  percentage damage caused to the plant, SETFA (five-point scale): 4 (4=61-80%)
[3]
  percentage damage caused to the plant, IPOHE (five-point scale): 0 (0=0%)
[4]
  percentage damage caused to the plant, AMARE (five-point scale): 1 (1=10-20%)
Zea mays (ZEAMX) [5]
  percentage damage caused to the plant, ZEAMX (five-point scale): 0 (0=0%)
[6]
  percentage damage caused to the plant, ECHCG (five-point scale): 3 (3=41-60%)
[7]
  percentage damage caused to the plant, five-point scale, IPOHE: 0 (0=0%)
Zea mays (ZEAMX) [8]
  percentage damage caused to the plant, five-point scale, ZEAMX: 0 (0=0%)
[9]
  percentage damage caused to the plant, five-point scale, ECHCG: 4 (4=61-80%)
Setaria faberi (SETFA) [10]
  percentage damage caused to the plant, five-point scale, SETFA: 4 (4=61-80%)
[11]
  percentage damage caused to the plant, five-point scale, ABUTH: 1 (1=10-20%)
[12]
  percentage damage caused to the plant, five-point scale, AMARE: 1 (1=10-20%)
